Source: patent US9850225B2, “Compounds useful as immunomodulators” (BRISTOL-MYERS SQUIBB COMPANY, priority 2014, dated 2017)

What follows are compounds tested against PD-1/PD-L1 interaction (PD-1-Ig / PD-L1-His) (Homo sapiens (Human), UniProt Q9NZQ7) (assay: PD-1/PD-L1 Homogenous Time-Resolved Fluorescence (HTRF) binding assay). Conditions: PD-1/PD-L1 HTRF binding assay; numeric value; read-out: Range or IC50.
Outline: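 Human PD-L1-His (10 nM final) was pre-incubated with inhibitor for 15 min, then PD-1-Ig (20 nM final) was added for a further 15 min in dPBS with 0.1% BSA and 0.05% Tween-20. Binding was detected by HTRF using Eu-cryptate anti-Ig (1 nM) and APC anti-His (20 nM).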

PD-1/PD-L1 interaction (PD-1-Ig / PD-L1-His), sequence (Q9NZQ7 other isoform, or with tags, fused parts or gaps): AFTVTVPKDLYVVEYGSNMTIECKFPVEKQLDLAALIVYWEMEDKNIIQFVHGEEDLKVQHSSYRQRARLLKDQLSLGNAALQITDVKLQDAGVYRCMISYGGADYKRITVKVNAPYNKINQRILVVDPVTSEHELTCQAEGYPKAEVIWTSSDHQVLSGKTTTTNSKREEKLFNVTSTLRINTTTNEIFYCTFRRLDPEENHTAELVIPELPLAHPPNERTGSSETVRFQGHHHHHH

Row | IC50 | SMILES
1 | 1.88 nM | Cc1cc(CN2CCCC[C@@H]2C(=O)O)c(OCc2cncc(C#N)c2)cc1OCc1cccc(-c2ccc3c(c2)OCCO3)c1C [Example 1288, (R)-1-(2-((5-cyanopyridin-3-yl)methoxy)-4-(3-(2,3-dihydrobenzo[b][1,4]dioxin-6-yl)-2-methylbenzyloxy)-5-methylbenzyl)piperidine-2-carboxylic acid]
2 | 828 nM | CC(=O)NCCNCc1ccc(OCc2cccc(-c3ccccc3)c2C)cc1OCc1cccc(OC(F)(F)F)c1 [Example 1082, N-(2-((4-((2-methyl-[1,1′-biphenyl]-3-yl)methoxy)-2-((3-(trifluoromethoxy)benzyl)oxy)benzyl)amino)ethyl)acetamide]

Same assay, conditions: PD-1/PD-L1 HTRF binding assay; value given as range class; read-out: Range or IC50

Row | SMILES | IC50
3 | COC(=O)CCCCOc1cc(OCc2cccc(-c3ccccc3)c2C)ccc1CNCCNC(C)=O [Example 1032, methyl 5-(2-(((2-acetamidoethyl)amino)methyl)-5-((2-methyl-[1,1′-biphenyl]-3-yl)methoxy)phenoxy)pentanoate] | 100 to 20000 nM
4 | Cc1c(COc2cc(OCc3cncc(C#N)c3)c(CN3CCCC[C@H]3C(=O)NS(=O)(=O)N(C)C)cc2Cl)cccc1-c1ccc2c(c1)OCCO2 [Example 1257, (S)-1-(5-chloro-2-((5-cyanopyridin-3-yl)methoxy)-4-((3-(2,3-dihydrobenzo[b][1,4]dioxin-6-yl)-2-methylbenzyl)oxy)benzyl)-N—(N,N-dimethylsulfamoyl)piperidine-2-carboxamide] | 10 to 100 nM
5 | CC(=O)NCCNCc1ccc(OCc2cccc(-c3ccccc3)c2C)cc1OCC(N)=O [Example 1031, 2-(2-(((2-acetamidoethyl)amino)methyl)-5-((2-methyl-[1,1′-biphenyl]-3-yl)methoxy)phenoxy)acetamide] | 100 to 20000 nM
6 | Cc1c(COc2cc(OCc3cccc(C#N)c3)c(CNC(Cc3cn(C)c4ccccc34)C(=O)O)cc2Cl)cccc1-c1ccc2c(c1)OCCO2 (centres unmarked) [Example 1168, 2-((5-chloro-2-((3-cyanobenzyl)oxy)-4-((3-(2,3-dihydrobenzo[b][1,4]dioxin-6-yl)-2-methylbenzyl)oxy)benzyl)amino)-3-(1-methyl-1H-indol-3-yl)propanoic acid] | 100 to 20000 nM
7 | CC(=O)NCCNCc1ccc(OCc2cccc(-c3ccccc3)c2C)cc1OCc1ccc2nc(C(F)(F)F)cc(Cl)c2c1 [Example 1083, N-(2-((2-((4-chloro-2-(trifluoromethyl)quinolin-6-yl)methoxy)-4-((2-methyl-[1,1′-biphenyl]-3-yl)methoxy)benzyl)amino)ethyl)acetamide] | 100 to 20000 nM
8 | COC(=O)CCCOc1cc(OCc2cccc(-c3ccccc3)c2C)ccc1CNCCNC(C)=O [Example 1036, methyl 4-(2-(((2-acetamidoethyl)amino)methyl)-5-((2-methyl-[1,1′-biphenyl]-3-yl)methoxy)phenoxy)butanoate] | 100 to 20000 nM
9 | CC(=O)NCCNCc1ccc(OCc2cccc(-c3ccccc3)c2C)cc1OCc1ccc(OC(F)F)cc1 [Example 1088, N-(2-((2-((4-(difluoromethoxy)benzyl)oxy)-4-((2-methyl-[1,1′-biphenyl]-3-yl)methoxy)benzyl)amino)ethyl)acetamide] | 100 to 20000 nM
10 | CC(=O)NCCNCc1ccc(OCc2cccc(-c3ccccc3)c2C)cc1OCc1nccc2ccccc12 [Example 1118, N-(2-((2-(isoquinolin-1-ylmethoxy)-4-((2-methyl-[1,1′-biphenyl]-3-yl)methoxy)benzyl)amino)ethyl)acetamide] | 100 to 20000 nM
11 | Cc1c(COc2cc(OCc3cccc(C#N)c3)c(CNC(C)(C)CN3CCN(C)CC3)cc2Cl)cccc1-c1ccc2c(c1)OCCO2 [Example 1223, 3-((4-chloro-5-((3-(2,3-dihydrobenzo[b][1,4]dioxin-6-yl)-2-methylbenzyl)oxy)-2-(((2-methyl-1-(4-methylpiperazin-1-yl)propan-2-yl)amino)methyl)phenoxy)methyl)benzonitrile] | 0.6 to 10 nM
12 | CC(=O)NCCNCc1ccc(OCc2cccc(-c3ccccc3)c2C)cc1OCc1cc(Cl)ccc1F [Example 1109] | 100 to 20000 nM
13 | Cc1cc(CNC[C@@H](O)CC(=O)O)c(OCc2cccnc2)cc1OCc1cccc(-c2ccc3c(c2)OCCO3)c1C [Example 1278, (S)-4-((4-((3-(2,3-dihydrobenzo[b][1,4]dioxin-6-yl)-2-methylbenzyl)oxy)-5-methyl-2-(pyridin-3-ylmethoxy)benzyl)amino)-3-hydroxybutanoic acid] | 0.6 to 10 nM
14 | Cc1c(COc2cc(OCc3cccc(C#N)c3)c(CNCC(O)CN3CCOCC3)cc2Cl)cccc1-c1ccc2c(c1)OCCO2 (centres unmarked) [Example 1212, 3-((4-chloro-5-((3-(2,3-dihydrobenzo[b][1,4]dioxin-6-yl)-2-methylbenzyl)oxy)-2-(((2-hydroxy-3-morpholinopropyl)amino)methyl)phenoxy)methyl)benzonitrile] | 0.6 to 10 nM
15 | Cc1c(COc2ccc(CN[C@@H](CO)C(=O)O)c(OCc3cccc(C#N)c3)c2)cccc1-c1ccccc1 [Example 1018, (S)-2-((2-((3-cyanobenzyl)oxy)-4-((2-methyl-[1,1′-biphenyl]-3-yl)methoxy)benzyl)amino)-3-hydroxypropanoic acid] | 0.6 to 10 nM
16 | Cc1c(COc2ccc(CNC[C@@H](O)CC(=O)O)c(OCc3ccc(F)c(C#N)c3)c2)cccc1-c1ccccc1 [Example 1331, (S)-4-((2-((3-cyano-4-fluorobenzyl)oxy)-4-((2-methyl-[1,1′-biphenyl]-3-yl)methoxy)benzyl)amino)-3-hydroxybutanoic acid] | 0.6 to 10 nM
17 | CC(=O)NCCNCc1ccc(OCc2cccc(-c3ccccc3)c2C)cc1OCc1ccc([N+](=O)[O-])cc1 [Example 1058, N-(2-((4-((2-methyl-[1,1′-biphenyl]-3-yl)methoxy)-2-((4-nitrobenzyl)oxy)benzyl)amino)ethyl)acetamide] | 100 to 20000 nM

Continued, values first:

Row | IC50 | SMILES
18 | 0.6 to 10 nM | Cc1cc(CN[C@@H](CO)C(=O)O)c(OCc2cncc(C#N)c2)cc1OCc1cccc(-c2ccc3c(c2)OCCO3)c1C [Example 1284, (S)-2-(2-((5-cyanopyridin-3-yl)methoxy)-4-(3-(2,3-dihydrobenzo[b][1,4]dioxin-6-yl)-2-methylbenzyloxy)-5-methylbenzylamino)-3-hydroxypropanoic acid]
19 | 0.6 to 10 nM | Cc1cc(CN[C@H](CO)C(=O)O)c(OCc2cncc(C#N)c2)cc1OCc1cccc(-c2ccc3c(c2)OCCO3)c1Cl [Example 1153, (R)-2-(4-(2-chloro-3-(2,3-dihydrobenzo[b][1,4]dioxin-6-yl)benzyloxy)-2-((5-cyanopyridin-3-yl)methoxy)-5-methylbenzylamino)-3-hydroxypropanoic acid]
20 | 0.6 to 10 nM | Cc1c(COc2ccc(CN[C@@H](C(=O)O)[C@@H](C)O)c(OCc3cccc(C#N)c3)c2)cccc1-c1ccccc1 [Example 1013, (2R,3R)-2-((2-((3-cyanobenzyl)oxy)-4-((2-methyl-[1,1′-biphenyl]-3-yl)methoxy)benzyl)amino)-3-hydroxybutanoic acid]
21 | 0.6 to 10 nM | Cc1c(COc2cc(OCc3cccc(C#N)c3)c(CN(C)C(C)C(=O)O)cc2Cl)cccc1-c1ccc2c(c1)OCCO2 (centres unmarked) [Example 1188, 2-((5-chloro-2-((3-cyanobenzyl)oxy)-4-((3-(2,3-dihydrobenzo[b][1,4]dioxin-6-yl)-2-methylbenzyl)oxy)benzyl)(methyl)amino)propanoic acid]
22 | 0.6 to 10 nM | Cc1c(COc2cc(OCc3cncc(C#N)c3)c(CN[C@](C)(CO)C(=O)O)cc2F)cccc1-c1ccc2c(c1)OCCO2 [Example 3001]
23 | 0.6 to 10 nM | Cc1cc(CNCCO)c(OCc2cncc(C#N)c2)cc1OCc1cccc(-c2ccc3c(c2)OCCO3)c1Cl [Example 1151, 5-((5-(2-chloro-3-(2,3-dihydrobenzo[b][1,4]dioxin-6-yl)benzyloxy)-2-((2-hydroxyethylamino)methyl)-4-methylphenoxy)methyl)nicotinonitrile]
24 | 0.6 to 10 nM | Cc1c(COc2cc(OCc3cccc(C#N)c3)c(CNC[C@@H](O)CC(=O)O)cc2Cl)cccc1-c1ccc2c(c1)OCCO2 [Example 1246, (S)-4-((5-chloro-2-((3-cyanobenzyl)oxy)-4-((3-(2,3-dihydrobenzo[b][1,4]dioxin-6-yl)-2-methylbenzyl)oxy)benzyl)amino)-3-hydroxybutanoic acid]
25 | 0.6 to 10 nM | Cc1c(COc2cc(OCc3cccc(C#N)c3)c(CN[C@@](C)(CO)C(=O)O)cc2Cl)cccc1-c1ccc2c(c1)OCCO2 [Example 1245, (S)-2-((5-chloro-2-((3-cyanobenzyl)oxy)-4-((3-(2,3-dihydrobenzo[b][1,4]dioxin-6-yl)-2-methylbenzyl)oxy)benzyl)amino)-3-hydroxy-2-methylpropanoic acid]
26 | 0.6 to 10 nM | Cc1c(COc2cc(OCc3cccc(C#N)c3)c(CN[C@](C)(CO)C(=O)O)cc2Br)cccc1-c1ccc2c(c1)OCCO2 [Example 1303, (R)-2-((5-bromo-2-((3-cyanobenzyl)oxy)-4-((3-(2,3-dihydrobenzo[b][1,4]dioxin-6-yl)-2-methylbenzyl)oxy)benzyl)amino)-3-hydroxy-2-methylpropanoic acid]
27 | 0.6 to 10 nM | Cc1c(COc2ccc(CN3CCCC[C@H]3C(=O)O)c(OCc3ccc(F)c(C#N)c3)c2)cccc1-c1ccccc1 [Example 1334, (S)-1-(2-((3-cyano-4-fluorobenzyl)oxy)-4-((2-methyl-[1,1′-biphenyl]-3-yl)methoxy)benzyl)piperidine-2-carboxylic acid]
28 | 0.6 to 10 nM | Cc1c(COc2cc(OCc3cncc(C#N)c3)c(CN[C@](C)(CO)C(=O)O)cc2Cl)cccc1-c1ccc2c(c1)OCCO2 [Example 1248, (R)-2-((5-chloro-2-((5-cyanopyridin-3-yl)methoxy)-4-((3-(2,3-dihydrobenzo[b][1,4]dioxin-6-yl)-2-methylbenzyl)oxy)benzyl)amino)-3-hydroxy-2-methylpropanoic acid]
29 | 0.6 to 10 nM | Cc1cc(OCc2cccc(-c3ccc4c(c3)OCCO4)c2C)cc(OCc2cncc(C#N)c2)c1CN[C@H](CO)C(=O)O [Example 1007, (R)-2-(2-((5-cyanopyridin-3-yl)methoxy)-4-(3-(2,3-dihydrobenzo[b][1,4]dioxin-6-yl)-2-methylbenzyloxy)-6-methylbenzylamino)-3-hydroxypropanoic acid]
